Measured values published in publication PMC11470957, “Principles of paralog-specific targeted protein degradation engaging the C-degron E3 KLHDC2” (Nature Communications, 2024).
pKd: −log10 of the molar value. “And” between values parts separate entries of the source, which are not always exact repeats. Equal values may be shown once.

Target: T1, KLHDC2^SBD (Homo sapiens, UniProt Q9Y2U9)
T1 sequence (Q9Y2U9 15-361): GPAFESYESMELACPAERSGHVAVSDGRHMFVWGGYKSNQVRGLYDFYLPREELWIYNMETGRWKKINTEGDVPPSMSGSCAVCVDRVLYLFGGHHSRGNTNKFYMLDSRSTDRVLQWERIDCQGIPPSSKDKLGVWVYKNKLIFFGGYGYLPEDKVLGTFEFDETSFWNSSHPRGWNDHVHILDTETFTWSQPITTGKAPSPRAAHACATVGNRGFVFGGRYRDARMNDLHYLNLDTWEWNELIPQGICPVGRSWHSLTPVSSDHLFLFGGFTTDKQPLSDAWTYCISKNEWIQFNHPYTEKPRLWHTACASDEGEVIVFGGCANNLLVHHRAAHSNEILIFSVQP
Assay: Surface plasmon resonance binding to KLHDC2
Set-up: KLHDC2^SBD (15-361) and its Avi-tagged counterpart were expressed in E. coli Rosetta2 cells; 6XHis-MBP (N, cleaved yes); made in house; host or cells: E. coli Rosetta2
Settings: for Raw SPR response: 12.5 uM; for SPR Response: FigS3d
Method: Surface plasmon resonance (SPR) was utilized to determine kinetic parameters and binding affinity of KLHDC2 substrates using a PioneerFE (Sartorius). Experiments were carried out in 20 mM Tris, 200 mM NaCl, 1 mM TCEP, 0.01% Brij35, and 1% DMSO at pH 7.4 as a running buffer with a 100 µL/min flow rate at 20 °C.
The 10xHis-KLHDC2 was immobilized onto a Ni-NTA-coated biosensor chip (HisCap). The chip surface was conditioned using 10 mM HCl, 50 mM NaOH, and 0.1% SDS (50 µL at 100 µL/min) twice, followed by a 100 mM Tris buffer wash (100 µL at 100 µL/min). The surface was then activated using an injection of 0.5 M EDTA (125 µL at 25 µL/min) followed by an injection of 5 mM NiCl2 (125 µL at 25 µL/min). […] Channel 2 was treated identically to channel 3 except for protein loading to be used as a reference channel. […] 100% of the loop was injected with a 300 s dissociation time. All samples were run in triplicate. Data was analyzed using Qdat software and fit to a simple 1-site model.
The SPR experiments were performed to determine the binding affinities (KD) of KLHDC2-SJ46411 and KLHDC2-SJ46418 complexes. All the experiments were performed using a Biacore 1S+ instrument. […] The running buffer consisted of 20 mM Tris pH 7.5, 200 mM NaCl, 1 mM TCEP, 0.01% Brij35, and 4% DMSO. […] In brief, before the immobilization, the sensor chip surface was conditioned by injecting a mixture of (3:1 v/v) 8 M guanidine hydrochloride and 1 M NaOH at a flow rate of 5 μL/min for 2 min for two times. Then, running buffer was injected at a 30 μl/min flow rate for 1 min 3 times. Next, the Biotin CAPture reagent was injected at a flow rate of 2 μl/min for 5 min. Then, biotinylated KLHDC2 was only injected onto the active channel (channel 2).
Sample preparation was carried out precisely the same as SJ46411. All experiments were performed using a multi-cycle analysis method with a 30 μl/min flow rate, 120 S association, and 240 s dissociation time. All data were reference subtracted and corrected for DMSO mismatch. The sensorgrams were analyzed using Biacore insight evaluation software, and KD was determined using the 1:1 steady-state affinity fitting. Finally, all the analyzed data was replotted using GraphPad Prizm 10 software.

Raw SPR response (time -29.2 s): 0.1281 | Raw SPR response (time -29.3 s): 0.1417 | Raw SPR data, fit (0.09765625 Fit, time -29 s): -0.002337 | Raw SPR data, fit (0.09765625 Fit, time -29.1 s): -0.002345 | Raw SPR data, fit (0.09765625 Fit, time -29.2 s): -0.002354 | Raw SPR data, fit (0.09765625 Fit, time -29.3 s): -0.002362 | Raw SPR data, fit (0.1953125Fit uM, time -29 s): 0.003849 | Raw SPR data, fit (0.1953125Fit uM, time -29.1 s): 0.003863 | Raw SPR data, fit (0.1953125Fit uM, time -29.2 s): 0.003876 | Raw SPR data, fit (0.1953125Fit uM, time -29.3 s): 0.003889 | Raw SPR data, fit (0.390625fit, time -29 s): 0.007264 | Raw SPR data, fit (0.390625fit, time -29.1 s): 0.007289 | Raw SPR data, fit (0.390625fit, time -29.2 s): 0.007315 | Raw SPR data, fit (0.390625fit, time -29.3 s): 0.00734 | Raw SPR data, fit (0.78125 fit, time -29 s): 0.01901 | Raw SPR data, fit (0.78125 fit, time -29.1 s): 0.01908 | Raw SPR data, fit (0.78125 fit, time -29.2 s): 0.01915 | Raw SPR data, fit (0.78125 fit, time -29.3 s): 0.01921 | Raw SPR data, fit (1.5625 fit, time -29 s): 0.01693 | Raw SPR data, fit (1.5625 fit, time -29.1 s): 0.01699 | Raw SPR data, fit (1.5625 fit, time -29.2 s): 0.01704 | Raw SPR data, fit (1.5625 fit, time -29.3 s): 0.0171 | Raw SPR data, fit (2.34375fit, time -29 s): 0.02325 | Raw SPR data, fit (2.34375fit, time -29.1 s): 0.02333 | Raw SPR data, fit (2.34375fit, time -29.2 s): 0.02341 | Raw SPR data, fit (2.34375fit, time -29.3 s): 0.0235 | Raw SPR data, fit (3.125 fit, time -29 s): 0.02052 | Raw SPR data, fit (3.125 fit, time -29.1 s): 0.02059 | Raw SPR data, fit (3.125 fit, time -29.2 s): 0.02066 | Raw SPR data, fit (3.125 fit, time -29.3 s): 0.02074 | Raw SPR data, fit (4.6875 fit, time -29 s): 0.02316 | Raw SPR data, fit (4.6875 fit, time -29.1 s): 0.02324 | Raw SPR data, fit (4.6875 fit, time -29.2 s): 0.02332 | Raw SPR data, fit (4.6875 fit, time -29.3 s): 0.0234 | Raw SPR data, fit (12.5 fit, time -29 s): 0.01922 | Raw SPR data, fit (12.5 fit, time -29.1 s): 0.01929 | Raw SPR data, fit (12.5 fit, time -29.2 s): 0.01935 | Raw SPR data, fit (12.5 fit, time -29.3 s): 0.01942 | SPR Response (analyte 0.0977 μM): 0.48 RU | SPR Response (analyte 0.195 μM): 0.7348 RU | SPR Response (analyte 0.391 μM): 1.4491 RU | SPR Response (analyte 0.781 μM): 2.3401 RU | SPR Response (analyte 1.56 μM): 3.3797 RU | SPR Response (analyte 2.34 μM): 3.8756 RU | SPR Response (analyte 4.69 μM): 4.4852 RU | SPR Response (analyte 12.5 μM): 5.3052 RU | SPR Rmax (n=1): 5.70 +/- 0.20 | pKd (read-out: SPR Kd): 6.00 and 6.01
SMILES: COCCOc1cccc2ccc(-c3nc(CC(=O)NCC(=O)O)cs3)cc12 [SJ46418]
